NS(=O)(=O)Cc1noc2ccccc12
solubility (mole fraction)
Details	273.15 K	278.15 K	283.15 K	288.15 K	293.15 K	298.15 K	303.15 K	308.15 K	313.15 K
in 1,4-dioxane	–	–	–	0.024	0.0294	0.0354	0.0416	0.0488	0.0563
in 2-butanone	0.0132	0.0154	0.0179	0.0209	0.0244	0.0282	0.0319	0.0358	0.0399
in DMF	0.0192	0.0278	0.0374	0.0469	0.0575	0.0687	0.0812	0.0946	0.108
in acetonitrile	0.00562	0.00691	0.00821	0.00982	0.0114	0.0131	0.0149	0.0171	0.0191
in cyclohexanone	0.00739	0.00898	0.0109	0.0129	0.0155	0.0184	0.0218	0.0262	0.0307
in ethanol	0.00112	0.00135	0.00159	0.00188	0.00221	0.00255	0.0029	0.0033	0.00373
in ethyl acetate	0.00498	0.00558	0.00625	0.00704	0.00793	0.00882	0.0098	0.0108	0.0118
in isopropanol	0.000617	0.000791	0.000996	0.00122	0.00146	0.00173	0.00207	0.00241	0.00274
in methanol	0.00253	0.00274	0.00298	0.00326	0.00353	0.00387	0.00421	0.0046	0.005
in n-butanol	0.00017	0.00026	0.000383	0.000528	0.000721	0.00095	0.00122	0.00148	0.00178
in n-propanol	0.00041	0.000546	0.000697	0.000862	0.00105	0.00126	0.00149	0.00175	0.002
in toluene	3.56e-05	5.05e-05	6.73e-05	8.69e-05	0.000106	0.000131	0.00016	0.000193	0.00023
